Results taken from US11130733B2, “4-OXO-alkylated tetramic acid compound, preparation method and use thereof” (BEIJING JOEKAI BIOTECH. LLC, priority 2017, dated 2021).
“And” between values parts separate entries of the source, which are not always exact repeats. Equal values may be shown once. Read-outs that look alike come from different tables or passages of the source.

Experiments:
[1] = Pharmacokinetic evaluation, plasma and brain concentrations; assay type: in vivo, ICR mice; conditions: for concentration at 0.083 h / concentration at 0.25 h / concentration at 0.5 h / concentration at 1 h / concentration at 2 h / concentration at 4 h / concentration at 6 h / concentration at 8 h: male, ICR, mouse
Text: Distribution of a medicament in the body is one of the important indicators to determine the dose and efficacy of the medicament. Thus, excellent candidate compounds should have good pharmacokinetic characteristics. In addition, since the compound of the present invention is intended to be used for the treatment of Alzheimer's disease, which is a disease of the central nervous system, the distribution pattern of the compound in the brain and the blood is also one of the subjects to be investigated. In this experiment, compound 50561 was administered to mice […] or by gavage, and the concentrations of the compound in blood and brain were measured at specific time points to determine the pharmacokinetic parameters.
Forty-eight male ICR mice purchased from Shanghai Sippr-BK Lab. Animal Co. Ltd were used in this experiment. The oral group was fasted for 10-14 hours before administration, and feeding was restored 4 hours after administration. Samples were collected from the intravenous administration group 0.083 h, 0.25 h, 0.5 h, 1 h, 2 h, 4 h, 8 h, and 24 h after administration, respectively: while for the oral administration group, about 0.5 mL of blood was collected from the heart 0.25 h, 0.5 h, 1 h, 2 h, 4 h, 6 h, 8 h, and 24 h after administration, respectively. Heparin sodium was used for anticoagulation. Blood samples were collected and placed on ice, and plasma was separated by centrifugation (centrifugation conditions: 8000 rpm, 6 minutes, 4C). The collected plasma was stored at −80° C. before analysis. After collecting plasma samples, brain tissues were collected, washed with normal saline, water-absorbed by filter paper, weighed immediately, and then placed in labeled tubes (one tube for one brain tissue). The samples to be tested were temporarily placed on ice before being stored in a −80° C. refrigerator.
The analysis methods of biological samples and the analysis of all samples were done by Medicilon Pharmaceutical Technology (Shanghai) Co., Ltd. The intraday accuracy evaluation of the quality control samples was carried out while analyzing the samples, and the accuracy of over 66.7% of the quality control samples was required to be between 80-120%.
When calculating the pharmacokinetic parameters, the BLQ before Cmax (including “No peak”) was calculated as 0; BLQ occurring after Cmax (including “No peak”) was not involved in the calculation. WinNonlin Professional V 5.2 (Pharsight, USA) was adopted to calculate the following pharmacokinetic parameters: AUC(0-t), AUC(0-∞), T1/2, MRT(0-∞), Cmax, and Tmax. The tissue/plasma ratio was to be calculated by the following formula based on the blood concentration data at different time points: Tissue/plasma ratio (mL/g)=tissue blood concentration/plasma blood concentration.

[2] = system: Drosophilae containing and expressing human Abeta42 gene; assay: Pavlov's olfactory-related instantaneous memory test in Drosophila; assay type: in vivo; conditions: FIG. 3; with increase of dosage; compared with positive compound memantine hydrochloride
[3] = brain, iv, 1 mg/kg, IV 1 mg/kg, read-out: Brain tissue concentration, Mean
[4] = brain, iv, 1 mg/kg, IV 1 mg/kg, read-out: Brain tissue concentration, individual mice
[5] = brain, po, 10 mg/kg, PO 10 mg/kg, read-out: Brain tissue concentration, Mean
[6] = brain, po, 10 mg/kg, PO 10 mg/kg, read-out: Brain tissue concentration, individual mice
[7] = plasma, iv, 1 mg/kg, IV 1 mg/kg, read-out: Blood concentration, Mean
[8] = plasma, iv, 1 mg/kg, IV 1 mg/kg, read-out: Blood concentration, individual mice
[9] = plasma, po, 10 mg/kg, PO 10 mg/kg, read-out: Blood concentration, Mean
[10] = plasma, po, 10 mg/kg, PO 10 mg/kg, read-out: Blood concentration, individual mice

O=C1C=C(OCc2ccc(F)cc2)[C@H](Cc2ccccc2)N1 [Compound 50561]
Blood concentration, individual mice ([1]; PO 10 mg/kg, 6 hr, 10 mg/kg): 6.30 ng/mL and 8.82 ng/mL | Brain tissue concentration, individual mice ([1]; PO 10 mg/kg, 6 hr, 10 mg/kg): 11.72 ng/G and 17.40 ng/G and 25.83 ng/G | Brain/plasma ratio, individual mice ([1]; PO 10 mg/kg, 6 hr, 10 mg/kg): 1.839 mL/G and 2.764 mL/G and 2.929 mL/G | Brain/plasma ratio, Mean ([1]; PO 10 mg/kg, 8 hr): 2.009 mL/G | Blood concentration, individual mice ([1]; PO 10 mg/kg, 8 hr, 10 mg/kg): 4.77 ng/mL and 3.88 ng/mL and 1.63 ng/mL | Brain tissue concentration, individual mice ([1]; PO 10 mg/kg, 8 hr, 10 mg/kg): 9.49 ng/G and BLQ | Brain/plasma ratio, individual mice ([1]; PO 10 mg/kg, 8 hr, 10 mg/kg): 1.575 mL/G and 2.443 mL/G | Blood concentration, individual mice ([1]; PO 10 mg/kg, 24 hr): BLQ | Brain tissue concentration, individual mice ([1]; PO 10 mg/kg, 24 hr): BLQ | content in brain tissue compared with blood ([1]; after intravenous injection and oral administration): higher than that in the blood | concentration at 0.083 h [1, 3]: 738 ng/g | concentration at 0.25 h [1, 3]: 454 ng/g | concentration at 0.25 h [1, 4]: 462 ng/g | concentration at 0.5 h [1, 3]: 204 ng/g | concentration at 0.5 h [1, 4]: 148 ng/g | concentration at 1 h [1, 3]: 43.1 ng/g | concentration at 1 h [1, 4]: 42.6 ng/g | concentration at 0.25 h [1, 5]: 1220 ng/g | concentration at 0.25 h [1, 6]: 1470 ng/g | concentration at 0.5 h [1, 5]: 1600 ng/g | concentration at 1 h [1, 5]: 1120 ng/g | concentration at 1 h [1, 6]: 906 ng/g | concentration at 2 h [1, 5]: 335 ng/g | concentration at 4 h [1, 5]: 41.7 ng/g | concentration at 6 h ([1]; brain, po, 10 mg/kg, PO 10 mg/kg, 6 hr, read-out: Brain tissue concentration, Mean): 18.3 ng/g | concentration at 8 h ([1]; brain, po, 10 mg/kg, PO 10 mg/kg, 8 hr, read-out: Brain tissue concentration, Mean): 8.5 ng/g | concentration at 8 h ([1]; brain, po, 10 mg/kg, PO 10 mg/kg, 8 hr, read-out: Brain tissue concentration, individual mice): 7.52 ng/g | concentration at 0.083 h [1, 7]: 302 ng/mL | concentration at 0.25 h [1, 7]: 195 ng/mL | concentration at 0.25 h [1, 8]: 188 ng/mL | concentration at 0.5 h [1, 7]: 82 ng/mL | concentration at 0.5 h [1, 8]: 58.1 ng/mL | concentration at 1 h [1, 7]: 15.3 ng/mL | concentration at 0.25 h [1, 9]: 653 ng/mL | concentration at 0.25 h [1, 10]: 754 ng/mL | concentration at 0.5 h [1, 9]: 727 ng/mL | concentration at 0.5 h [1, 10]: 1020 ng/mL | concentration at 1 h [1, 9]: 499 ng/mL | concentration at 1 h [1, 10]: 365 ng/mL | concentration at 2 h [1, 9]: 144 ng/mL | concentration at 4 h [1, 9]: 18.9 ng/mL | concentration at 6 h ([1]; plasma, po, 10 mg/kg, PO 10 mg/kg, 6 hr, read-out: Blood concentration, Mean): 7.16 ng/mL | concentration at 6 h ([1]; plasma, po, 10 mg/kg, PO 10 mg/kg, 6 hr, read-out: Blood concentration, individual mice): 6.37 ng/mL | concentration at 8 h ([1]; plasma, po, 10 mg/kg, PO 10 mg/kg, 8 hr, read-out: Blood concentration, Mean): 3.43 ng/mL | dose-effect relationship to improve memory of drosophilae [2]: eventually reaches or exceeds the level of the activity of the positive compound memantine hydrochloride
